Laboratory results from patent US6756504B2, “Sphingolipids” (Yissum Research Development Company of the Hebrew …, priority 2000, dated 2004).

How the values were obtained:
HL60 cells [1] = test: HL60 total protein content (Bradford); type: cell-based, Human
Procedure: (§1) HL60: Human leukemia cell line (ATCC CCL-240).
The effect of the AD-2646 compound on cell viability was further supported when the total protein content was quantified. HL60 cells were incubated as described above, with different concentrations of AD-2646. After 2 days the cells were collected, washed twice with saline, dispersed and following a short pulsing with a probe-sonicator their protein content was quantified by the Bradford procedure. Similarly to the viable cell counting results, the protein measurements indicated an IC50 value of 5 μM.
To analyze whether the AD-2646 compound may mediate its effect on cell viability and on total protein content, in cooperation with other compounds, the cooperative effect of this compound and Taxol was next evaluated. HL60 cells were incubated for two days with 4 μM AD2646 in the presence or absence of 2 ng Taxol.
The effect of different compounds of the invention on cell viability was next evaluated by measuring total cell protein quantity. Different cell lines were incubated for two days in the presence of increasing concentrations of the different compounds of the present invention.

[2] = system: Bod3-GC (glucosylceramide) synthesis in HL60 cells; test: Sphingolipid metabolism from Bodipy-C3-ceramide: Bod3-GC in HL60; type: cell-based, Human; conditions: for reduction of the level of Bod3-GC (fluorescent image): HL60, 10 μM
Procedure: (§2) In order to examine the effect of the different compounds on sphingolipids metabolism, different cell lines were incubated with increasing concentrations of different compounds of the invention in the presence of 2.5 μM Bodipy-C3-ceramide that was added to the culture medium as a solution in dimethylsulfoxide (not exceeding 0.1% DMSO of the final volium). After 3 hours, cells and medium were collected and centrifuged. Cells were next extracted with chloroform-methanol containing 2% acetic acid 1:1 (by volume) and the medium was shaken with an equal volume of chloroform-methanol, 1:1 (by volume). The phases were separated by centrifugation and the lower chloroform phase was collected. The solvents were evaporated and applied to thin layer chromatography silica gel plates (Whatman 4865-821) with a concentrating zone.
(§3) Plates were developed as follows: For medium: in chloroform-methanol-H2O, 75:25:4 by volume. For cells: plates were first developed with chloroform-methanol, 9:1, then dried and re-run in chloroform-methanol: H2O, 65:35:4.
(§4) Standards of Bodipy-C3-ceramide: Bodipy-C3-glucosylceramide (Bod3-GC) and Bodipy C3 sphingomyelin (Bod3-SPM) were used as markers. The fluorescence of the respective Bod3-SPM and Bod3-GC spots was quantified using a Fuji FLA-2000 scanner.

[3] = system: Bod3-SPM (sphingomyelin) synthesis in HL60 cells; test: Sphingolipid metabolism from Bodipy-C3-ceramide: Bod3-SPM in HL60; type: cell-based, Human; conditions: for inhibition of Bod3-SPM (fluorescent image): HL60, 10 μM; for IC50: HL60, 3 hours, 2.5 μM Bodipy-C3-ceramide, read-out: od 3-SPM (IC50 for reduction of Bod3-SPM, cell+medium)
Procedure: as §2, §3, §4

acid sphingomyelinase = biological target: T1, acid sphingomyelinase (Homo sapiens, UniProt P17405); test: Acid sphingomyelinase inhibition, HL60 sonicate; type: biochemical; conditions: pH 5.0, 300 μM
T1 construct: a sonicate of HL60 leukemic cells was used as enzyme source; endogenous in cells; host or cells: HL60 leukemic cells (sonicate)
T1 sequence (P17405 47-631): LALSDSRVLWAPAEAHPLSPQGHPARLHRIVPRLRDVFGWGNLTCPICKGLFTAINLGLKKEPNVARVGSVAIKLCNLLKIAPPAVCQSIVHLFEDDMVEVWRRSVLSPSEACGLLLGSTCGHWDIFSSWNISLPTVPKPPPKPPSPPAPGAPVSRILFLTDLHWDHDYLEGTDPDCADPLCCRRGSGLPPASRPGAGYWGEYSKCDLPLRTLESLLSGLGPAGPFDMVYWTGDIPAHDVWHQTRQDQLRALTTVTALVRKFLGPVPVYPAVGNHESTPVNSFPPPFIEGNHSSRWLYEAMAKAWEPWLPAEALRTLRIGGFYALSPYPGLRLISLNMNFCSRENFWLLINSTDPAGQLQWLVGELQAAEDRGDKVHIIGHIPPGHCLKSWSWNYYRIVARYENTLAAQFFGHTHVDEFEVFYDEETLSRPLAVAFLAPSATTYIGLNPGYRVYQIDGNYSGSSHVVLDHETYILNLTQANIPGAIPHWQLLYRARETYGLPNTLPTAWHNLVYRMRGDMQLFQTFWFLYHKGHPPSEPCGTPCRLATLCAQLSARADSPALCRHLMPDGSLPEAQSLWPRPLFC
Procedure: (§5) N-hexyl-sphingosyl phosphorylcholine (AD-2144) was tested as to its inhibitory effect on sphingomyelinases, acidic (i.e., with an optimum at about pH 5) or neutral (with a pH optimum at about pH 7.4). For this purpose a sonicate of HL60 leukemic cells was used as enzyme source. Increasing concentrations of AD-2144 were dispersed by a mixture of fluorescent and non-fluorescent sphingomyelin (Bodipy-C12-SPM:SPM, 1:19), buffer and 0.25% Triton-X10O in a volume of 100 μl. For acid sphingomyelinase 0.4M acetate buffer pH 5.0 was used; for neutral sphingomyelinase 0.2M Tris buffer, pH 7.4 and 5 mM magnesium chloride. To 100 μl of these dispersions, 100 μl of HL60 cells sonicate were added. Incubation was 2-3 hours after which 0.8 ml of chloroform:methanol 2:1 were added, stirred and the lower, chloroform phase was collected, dried and applied to a thin layer chromatography plate. The plate was developed in a mixture of chloroform and methanol, 87:3. The fluorescence of the product, i.e., Bodipy-C12-ceramide, was quantified.

neutral sphingomyelinase = test: Neutral sphingomyelinase inhibition, HL60 sonicate; type: biochemical, Human; conditions: pH 7.4, 300 μM
Procedure: as §5

[4] = literature (Wieder et al. 1998); cited from earlier work
Swiss mice = test: In vivo toxicity of AD-2646, mice viability
Procedure: Six groups, each of 5 Swiss mice were injected, intra-peritoneally with solutions of AD-2646, at varying concentrations, each in a volume of 100 μl. Injections were performed on days 1, 2, 3, 4, and mice viability was tested (Table 5).

HL60 cells [5] = test: HL60 cell viability, viable cell count (trypan blue); type: cell-based, Human; conditions: HL60, 2 days, FIG. 1, read-out: IC50, number of living (non-blue) cells
Procedure: as §1
The effect of AD-2646 on cell viability was analyzed by measuring cell mortality (viable cell count) and/or total protein quantity.
HL60 cells grown in RMPI plus 10% fetal calf serum, were incubated with increasing concentrations of (2R,3R)-2-(N-tetradecylamine)-1-(4-nitro-phenyl)-1,3-propanediol (AD-2646) in 6- or 24-well dishes. […] After 2 days the cells were collected, washed twice with saline, treated with trypan blue and the number of living (non-blue) cells was counted. FIG. 1 indicates an IC50 value of 5 μM.
Kinetic of the observed killing effect of the AD-2646 compound was next examined. HL60 cells were incubated with 40 μM of AD-2646 for 1, 3, 5 and 7 hours. Already after 1 hour a reduction of 60% of the viable cell number was observed.

HL60 cells [6] = test: Apoptosis in HL60 cells, propidium iodide flow cytometry (FACS); type: cell-based, Human
Procedure: The apoptotic effect of three different compounds was further examined on HL60 cells using a flow cytometry method. […] Washed cells were then treated with 5% Triton and stained with propidium iodide 0.5% mg in 0.1% sodium citrate pH 7.4. Analysis was performed using a Becton Dickinson Fluorescence Activated Cell Sorter (FACS).

[7] = system: Bod3-SPM synthesis in TSU-PR1 prostate cancer cells; test: Sphingolipid metabolism: Bod3-SPM in TSU-PR1; type: cell-based; conditions: TSU-PR1, 3 hours, FIG. 5; read-out: IC50 for reduction of Bod3-SPM
Procedure: as §2, §3, §4
The effect of AD-2646 on sphingolipid metabolism was further examined using TSU-PR1 prostate cancer cells.

[8] = HL60, two days, 4 μM AD-2646 plus 2 ng Taxol

Q: With CC(=O)O[C@H]1C(=O)[C@@]2(C)[C@H]([C@H](OC(=O)c3ccccc3)[C@]3(O)C[C@H](OC(=O)[C@H](O)[C@@H](NC(=O)c4ccccc4)c4ccccc4)C(C)=C1C3(C)C)[C@]1(OC(C)=O)CO[C@@H]1C[C@@H]2O [Taxol, reference compound] as the molecule, how does the Protein content (HL60 cells [1]; HL60, two days, 2 ng Taxol alone) read?
A: 206 µg

Q: With CCCCCCCCCCCC(=O)Nc1ccc([C@H](O)[C@@H](N)CO)cc1 [AD-2674] as the molecule, how does the “reduction of the level of Bod3-GC (fluorescent image)” value ([2]; FIG. 6) read?
A: much stronger reduction

Q: And the “inhibition of Bod3-SPM (fluorescent image)” value ([3]; FIG. 6)?
A: low inhibition

Q: For CC(C)(C)OC(=O)NCCCCCCCCCCCC(=O)Nc1ccc([C@H](O)[C@@H](CO)NC(=O)OC(C)(C)C)cc1 [AD-2620, (2R,3S)-2-BOC-amino-1-[4-N-(dodecanoyl-12-N-BOC amine)-phenyl)-1,3-propanediol], which IC50 (HL60 cells [1]; HL60, two days, read-out: C50 (cell viability, total cell protein)) is on record?
A: 3 µM

Q: With CCCCCCCCCCCCC/C=C/[C@H](O)[C@@H](COP(=O)([O-])OCC[N+](C)(C)C)NCCCCCC [AD-2144, L-Erythro Sphingosyl Phosphorylcholine-N-Hexyl] as the molecule, how does the “reduction in Bodipy-C12-ceramide” value (acid sphingomyelinase) read?
A: over 60%

Q: And the “reduction in Bodipy-C12-ceramide” value (neutral sphingomyelinase)?
A: over 60%

Q: Which “reduction of the level of Bod3-GC (fluorescent image)” value ([2]; FIG. 6) does the source give for CCCCCCCCCCCC(=O)Nc1ccc([C@@H](O)[C@H](N)CO)cc1 [AD-2673, (2R,3R)-2 amino-1-(N-dodecanoylaminophenyl)-1,3-propanediol] here?
A: much stronger reduction

Q: What about the “inhibition of Bod3-SPM (fluorescent image)” value ([3]; FIG. 6) of the same molecule?
A: low inhibition

Q: And the IC50 [3]?
A: 6 µM

Q: For CCCCCCCCCCCCCCCCOP(=O)([O-])OCC[N+](C)(C)C [HePC, hexadecylphosphocholine], which “concentration shown to induce apoptosis” value [4] is on record?
A: 25 µM

Q: Which results are given for CCCCCCCCCCCCCCN[C@H](CO)[C@H](O)c1ccc(N)cc1 [AD-2672, (2R,3R)-2-(N-tetradecylamine)-1-(4-aminophenyl)-1,3-propanediol]?
A: effect on level of Bod3-GC (fluorescent image) ([2]; HL60, 5 and 10 μM, FIG. 6): not; effect on level of Bod3-SPM (fluorescent image) ([3]; HL60, 5 and 10 μM, FIG. 6): strongly reduces; IC50 [3]: 4 µM

Q: Which results are given for CCCCCCCCCCCCCCN[C@H](CO)[C@H](O)c1ccc([N+](=O)[O-])cc1 [AD-2646, (2R,3R)-2-(N-tetradecylamine)-1-(4-nitrophenyl)-1,3-propanediol]?
A: No. of mice in each day (Swiss mice; 1 mg/kg i.p. days 1-4, groups of 5 mice, day 1): 5; No. of mice in each day (Swiss mice; 1 mg/kg i.p. days 1-4, groups of 5 mice, day 2): 5; No. of mice in each day (Swiss mice; 1 mg/kg i.p. days 1-4, groups of 5 mice, day 3): 5; No. of mice in each day (Swiss mice; 1 mg/kg i.p. days 1-4, groups of 5 mice, day 4): 5; No. of mice in each day (Swiss mice; 1 mg/kg i.p. days 1-4, groups of 5 mice, day 5): 5; No. of mice in each day (Swiss mice; 1 mg/kg i.p. days 1-4, groups of 5 mice, day 6): 5; No. of mice in each day (Swiss mice; 5 mg/kg i.p. days 1-4, groups of 5 mice, day 1): 5; No. of mice in each day (Swiss mice; 5 mg/kg i.p. days 1-4, groups of 5 mice, day 2): 5; No. of mice in each day (Swiss mice; 5 mg/kg i.p. days 1-4, groups of 5 mice, day 3): 5; No. of mice in each day (Swiss mice; 5 mg/kg i.p. days 1-4, groups of 5 mice, day 4): 5; No. of mice in each day (Swiss mice; 5 mg/kg i.p. days 1-4, groups of 5 mice, day 5): 5; No. of mice in each day (Swiss mice; 5 mg/kg i.p. days 1-4, groups of 5 mice, day 6): 5; No. of mice in each day (Swiss mice; 10 mg/kg i.p. days 1-4, groups of 5 mice, day 1): 5; No. of mice in each day (Swiss mice; 10 mg/kg i.p. days 1-4, groups of 5 mice, day 2): 5; No. of mice in each day (Swiss mice; 10 mg/kg i.p. days 1-4, groups of 5 mice, day 3): 5; No. of mice in each day (Swiss mice; 10 mg/kg i.p. days 1-4, groups of 5 mice, day 4): 5; No. of mice in each day (Swiss mice; 10 mg/kg i.p. days 1-4, groups of 5 mice, day 5): 5; No. of mice in each day (Swiss mice; 10 mg/kg i.p. days 1-4, groups of 5 mice, day 6): 5; No. of mice in each day (Swiss mice; 25 mg/kg i.p. days 1-4, groups of 5 mice, day 2): 5; No. of mice in each day (Swiss mice; 25 mg/kg i.p. days 1-4, groups of 5 mice, day 3): 5; No. of mice in each day (Swiss mice; 25 mg/kg i.p. days 1-4, groups of 5 mice, day 4): 5; No. of mice in each day (Swiss mice; 25 mg/kg i.p. days 1-4, groups of 5 mice, day 5): 5; No. of mice in each day (Swiss mice; 25 mg/kg i.p. days 1-4, groups of 5 mice, day 6): 5; No. of mice in each day (Swiss mice; 50 mg/kg i.p. days 1-4, groups of 5 mice, day 1): 5; No. of mice in each day (Swiss mice; 50 mg/kg i.p. days 1-4, groups of 5 mice, day 2): 5; IC50 (HL60 cells [5]): 5 µM; IC50 ([2]; HL60, 3 hours, 2.5 μM Bodipy-C3-ceramide, read-out: od 3-GC (IC50 for Bod3-GC reduction)): 12 µM; IC50 [3]: ~6 µM; IC50 (HL60 cells [1]; HL60, 2 days, Bradford, read-out: IC50, protein content): 5 µM; Protein content (HL60 cells [1]; [8]): 93 µg; cooperative effect with Taxol on total protein quantity (HL60 cells [1]; [8]): synergism; apoptotic cells (HL60 cells [6]; HL60, 3 hours, 10 μM): 12%; apoptotic cells (HL60 cells [6]; HL60, 3 hours, 20 μM): 18%; apoptotic cells (HL60 cells [6]; HL60, 3 hours, 40 μM): 26%; apoptotic cells (HL60 cells [6]; HL60, 24 hours, 10 μM): about 50%; IC50 [7]: ~5 µM
